The values below come from PubChem BioAssay (NCI).

Some test systems named below: SK-OV-3 ovarian; MDA-MB-435; NCI-H226 lung; DU-145 prostate; KM12 colon; K-562 leukemia; SF-539 CNS; SK-MEL-28 melanoma; CCRF-CEM leukemia; SNB-75 CNS; MDA-MB-231 breast; HOP-92 NSCLC; OVCAR-8 ovarian; A498 renal; NCI-H522 lung.
Holding throughout (assay): growth of human tumour cells (NCI), 48 h

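Following 48 hours of exposure in 96-well plates, responses at five concentrations were used to interpolate endpoints linearly. TGI marks complete inhibition of growth.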

For `CCSC1=N/C(=C\c2ccco2)C(Cl)=N1`, the TGI with SK-OV-3 ovarian, with MDA-MB-435, with NCI-H226 lung, with DU-145 prostate, in the experiment on KM12 colon and in the experiment with K-562 leukemia was above 100 µM throughout. Also, the TGI in the experiment on SF-539 CNS, in the experiment with SK-MEL-28 melanoma, in the experiment with CCRF-CEM leukemia, in the experiment on SNB-75 CNS, with MDA-MB-231 breast and in the experiment with HOP-92 NSCLC was above 100 µM each time. Also, the TGI in the experiment with OVCAR-8 ovarian and in the experiment with A498 renal was above 100 µM throughout.
Regarding `CCOC(=O)C1C(c2ccc(OC)cc2)c2c([nH][nH]c2=O)CC1(O)OCC` (stereo unspecified), the TGI in the experiment with MDA-MB-435, in the experiment with DU-145 prostate, with KM12 colon, in the experiment on NCI-H522 lung, with SF-539 CNS and in the experiment with SK-MEL-28 melanoma was above 100 µM each time. Moreover, the TGI in the experiment with CCRF-CEM leukemia, in the experiment on SNB-75 CNS, with MDA-MB-231 breast, with HOP-92 NSCLC, in the experiment on OVCAR-8 ovarian and in the experiment with A498 renal was above 100 µM each time.
Regarding `O=c1oc2ccccc2c(O)c1C(c1ccc(/C=C/c2ccccc2)cc1)c1c(O)c2ccccc2oc1=O`, the TGI is 80 µM with MDA-MB-435; 74.4 µM in the experiment on NCI-H226 lung; above 100 µM with DU-145 prostate; 64.4 µM in the experiment on KM12 colon; 49.1 µM in the experiment with NCI-H522 lung; above 100 µM in the experiment with K-562 leukemia. The TGI in the experiment on SK-MEL-28 melanoma was 86.9 µM; in the experiment with CCRF-CEM leukemia it was above 100 µM; in the experiment with SNB-75 CNS, 66.5 µM; in the experiment with MDA-MB-231 breast, 67.9 µM; in the experiment with HOP-92 NSCLC, 53.5 µM; in the experiment with OVCAR-8 ovarian it was 43.8 µM. Further, the TGI in the experiment on A498 renal was above 100 µM.
With `[N-]=[NH+]CC(=O)OC(COCc1ccccc1)COCc1ccccc1`, the TGI in the experiment on SK-OV-3 ovarian is above 100 µM; in the experiment on MDA-MB-435, above 100 µM; in the experiment with NCI-H226 lung, above 100 µM; in the experiment on DU-145 prostate it was above 100 µM; with KM12 colon, 86.2 µM; in the experiment with NCI-H522 lung, above 100 µM. In addition, the TGI in the experiment with K-562 leukemia, in the experiment on SK-MEL-28 melanoma, in the experiment with CCRF-CEM leukemia, in the experiment with MDA-MB-231 breast, in the experiment with HOP-92 NSCLC and in the experiment with A498 renal was above 100 µM each time.
Regarding `Cc1ccc(SCC(CF)OCn2cc(F)c(=O)[nH]c2=O)cc1` (stereo unspecified), the TGI in the experiment with SK-OV-3 ovarian, in the experiment with MDA-MB-435, in the experiment with DU-145 prostate, in the experiment on NCI-H522 lung, in the experiment on K-562 leukemia and with SF-539 CNS was above 100 µM in each case. The TGI in the experiment with SK-MEL-28 melanoma, in the experiment on CCRF-CEM leukemia, with MDA-MB-231 breast, with HOP-92 NSCLC, in the experiment on OVCAR-8 ovarian and in the experiment on A498 renal was above 100 µM throughout.
For the compound `N#Cc1sc2c(c1OC(=O)c1cccs1)c(=O)n(-c1ccccc1)c(=S)n2-c1ccccc1`, the TGI in the experiment on SK-OV-3 ovarian is above 100 µM; with MDA-MB-435 it was above 100 µM; in the experiment on NCI-H226 lung, 43.4 µM; in the experiment with DU-145 prostate, above 100 µM; with KM12 colon it was 43.6 µM; in the experiment on NCI-H522 lung, 34.3 µM. In addition, the TGI in the experiment on K-562 leukemia was 83.4 µM; in the experiment with SF-539 CNS, 49.6 µM; with SK-MEL-28 melanoma, 61.6 µM; in the experiment with SNB-75 CNS, above 100 µM; with MDA-MB-231 breast, 45.1 µM; in the experiment with OVCAR-8 ovarian it was 81.6 µM.
Take `CSC1=N/C(=C\c2ccco2)C(=O)N1CN1CCCCC1`: the TGI with SK-OV-3 ovarian, with MDA-MB-435, in the experiment on NCI-H226 lung, with DU-145 prostate, in the experiment with KM12 colon and in the experiment on NCI-H522 lung was above 100 µM throughout. The TGI in the experiment with K-562 leukemia is above 100 µM; with SK-MEL-28 melanoma it was above 100 µM; in the experiment with SNB-75 CNS it was above 100 µM; in the experiment on MDA-MB-231 breast it was above 100 µM; in the experiment on HOP-92 NSCLC, 87.2 µM; in the experiment on OVCAR-8 ovarian, above 100 µM. The TGI with A498 renal was above 100 µM.
`O=C(O)c1ccc2c(c1)CC1(C2)Cc2ccccc2C1=O` (stereo unspecified): the TGI with SK-OV-3 ovarian, in the experiment with MDA-MB-435, in the experiment with NCI-H226 lung, in the experiment with DU-145 prostate, with KM12 colon and in the experiment on NCI-H522 lung was above 100 µM in each case. The TGI in the experiment with K-562 leukemia, with SF-539 CNS, with SK-MEL-28 melanoma, in the experiment with CCRF-CEM leukemia, in the experiment on SNB-75 CNS and with MDA-MB-231 breast was above 100 µM throughout. For the same compound, the TGI in the experiment on HOP-92 NSCLC and in the experiment on OVCAR-8 ovarian was above 100 µM each time.
With `O=c1oc2ccccc2nc1/C=C(\O)c1ccc([N+](=O)[O-])cc1`, the TGI in the experiment with SK-OV-3 ovarian, in the experiment on MDA-MB-435, in the experiment on NCI-H226 lung, in the experiment with DU-145 prostate, in the experiment on KM12 colon and in the experiment with NCI-H522 lung was above 100 µM in each case. In addition, the TGI with K-562 leukemia, with SF-539 CNS, in the experiment with CCRF-CEM leukemia, in the experiment on SNB-75 CNS, with MDA-MB-231 breast and in the experiment on OVCAR-8 ovarian was above 100 µM throughout. This compound also came in with a TGI in the experiment on A498 renal above 100 µM.
In the case of `Cn1c(Nc2ccccc2)c(C=Nc2ccccc2)c(=O)n(C)c1=O`, the TGI with SK-OV-3 ovarian, in the experiment on MDA-MB-435, in the experiment on DU-145 prostate, in the experiment on KM12 colon, in the experiment on K-562 leukemia and in the experiment on SF-539 CNS was above 100 µM in each case. For the same compound, the TGI in the experiment on SK-MEL-28 melanoma, in the experiment on CCRF-CEM leukemia, in the experiment with MDA-MB-231 breast, in the experiment on HOP-92 NSCLC, in the experiment with OVCAR-8 ovarian and in the experiment on A498 renal was above 100 µM in each case.
`COc1cc(C2c3cc4c(cc3OC(Nc3ccccc3)C2C)OCO4)cc(OC)c1OC` (stereo unspecified): the TGI with SK-OV-3 ovarian is above 100 µM; in the experiment on MDA-MB-435, 0.527 µM; in the experiment on NCI-H226 lung, 12.8 µM; with DU-145 prostate it was above 100 µM; in the experiment on KM12 colon it was above 100 µM; in the experiment with NCI-H522 lung, 2.04 µM. For the same compound, the TGI in the experiment with K-562 leukemia was above 100 µM; in the experiment with SF-539 CNS it was 0.697 µM; with SK-MEL-28 melanoma it was above 100 µM; with CCRF-CEM leukemia, above 19.9 µM; in the experiment with SNB-75 CNS, 99.2 µM; with MDA-MB-231 breast it was above 52.4 µM. Also, the TGI with OVCAR-8 ovarian is above 31.6 µM; in the experiment with A498 renal, 1.69 µM.
